Patent US11083725B2 (priority 2014, dated 2021)

System: NHBE cells
Assay: Biolog metabolic array: substrate use by NHBE cells with or without CA09 infection
Assay type: cell-based, human
Details: for Substrate use, 590 nm absorbance normalized to zero hour, 0 hr: Biolog PMM2, 0 hr; for Substrate use, 590 nm absorbance normalized to zero hour, 1 hr: Biolog PMM2, 1 hr; for Substrate use, 590 nm absorbance normalized to zero hour, 5 hr: Biolog PMM2, 5 hr; for Substrate use, 590 nm absorbance normalized to zero hour, 7 hr: Biolog PMM2, 7 hr
[1] = Control (uninfected) NHBE cells
[2] = Virus (CA09-infected NHBE cells, MOI 1)
[3] = Virus: CA09-infected NHBE cells, MOI 1, Biolog PMM2
[4] = Virus (CA09-infected, MOI 1) NHBE cells

Row | Molecule | 590 nm absorbance normalized to zero hour (substrate use), 1 hr [1] | 590 nm absorbance normalized to zero hour (substrate use), 2 hr [1] | 590 nm absorbance normalized to zero hour (substrate use), 3 hr [1] | 590 nm absorbance normalized to zero hour (substrate use), 4 hr [1] | 590 nm absorbance normalized to zero hour (substrate use), 6 hr [1] | 590 nm absorbance normalized to zero hour (substrate use), 8 hr [1] | 590 nm absorbance normalized to zero hour (substrate use), 9 hr [1] | 590 nm absorbance normalized to zero hour (substrate use), 10 hr [1] | 590 nm absorbance normalized to zero hour (substrate use), 11 hr [1] | Substrate use, 590 nm absorbance normalized to zero hour, 1 hr [1] | Substrate use, 590 nm absorbance normalized to zero hour, 5 hr [1] | Substrate use, 590 nm absorbance normalized to zero hour, 7 hr [1] | 590 nm absorbance normalized to zero hour (substrate use), 1 hr [3] | 590 nm absorbance normalized to zero hour (substrate use), 2 hr [3] | 590 nm absorbance normalized to zero hour (substrate use), 3 hr [3] | 590 nm absorbance normalized to zero hour (substrate use), 5 hr [3] | 590 nm absorbance normalized to zero hour (substrate use), 6 hr [3] | 590 nm absorbance normalized to zero hour (substrate use), 7 hr [3] | 590 nm absorbance normalized to zero hour (substrate use), 8 hr [3] | 590 nm absorbance normalized to zero hour (substrate use), 9 hr [3] | other results
1 | O[C@H]1[C@H](O)[C@@H](O)[C@H](O)[C@@H](O)[C@H]1O [m-Inositol] | 1.63 | 2.13 | 3.87 | 3.78 | 3.01 | 3.42 | 3.81 | 3.89 | 3.64 | 1.63 | 3.07 | 3.55 | 0.51 | 0.66 | 0.77 | 0.94 | 0.99 | 1.04 | 1.10 | 1.20 | 590 nm absorbance normalized to zero hour (substrate use), 0 hr [1]: 1.00; Substrate use, 590 nm absorbance normalized to zero hour, 0 hr [1]: 1.00; Substrate use, 590 nm absorbance normalized to zero hour, 11 hr (Control (uninfected) NHBE cells, Biolog PMM2, 11 hr): 4.22; 590 nm absorbance normalized to zero hour (substrate use), 0 hr [2]: 1.00; 590 nm absorbance normalized to zero hour (substrate use), 1 hr [2]: 0.51; 590 nm absorbance normalized to zero hour (substrate use), 2 hr [2]: 0.66; 590 nm absorbance normalized to zero hour (substrate use), 3 hr [2]: 0.77; 590 nm absorbance normalized to zero hour (substrate use), 4 hr [2]: 0.81; 590 nm absorbance normalized to zero hour (substrate use), 5 hr [2]: 0.94; 590 nm absorbance normalized to zero hour (substrate use), 6 hr [2]: 0.99; 590 nm absorbance normalized to zero hour (substrate use), 7 hr [2]: 1.04; 590 nm absorbance normalized to zero hour (substrate use), 8 hr [2]: 1.10; 590 nm absorbance normalized to zero hour (substrate use), 9 hr [2]: 1.20; 590 nm absorbance normalized to zero hour (substrate use), 10 hr [2]: 1.24; 590 nm absorbance normalized to zero hour (substrate use), 11 hr [2]: 1.34; 590 nm absorbance normalized to zero hour (substrate use), 0 hr [3]: 1.00; 590 nm absorbance normalized to zero hour (substrate use), 4 hr [3]: 0.81; 590 nm absorbance normalized to zero hour (substrate use), 10 hr [3]: 1.24; 590 nm absorbance normalized to zero hour (substrate use), 11 hr [3]: 1.34
2 | O=C(O)CC(O)(CC(=O)O)C(=O)O [Citric Acid] | 1.40 | 1.41 | 1.16 | 1.15 | 1.07 | 1.05 | 1.05 | 1.05 | 1.04 | 1.40 | 1.22 | 1.04 | 1.54 | 1.94 | 2.21 | 2.64 | 2.74 | 2.85 | 2.95 | 3.10 | 590 nm absorbance normalized to zero hour (substrate use), 1 hr [4]: 1.54; 590 nm absorbance normalized to zero hour (substrate use), 2 hr [4]: 1.94; 590 nm absorbance normalized to zero hour (substrate use), 3 hr [4]: 2.21; 590 nm absorbance normalized to zero hour (substrate use), 4 hr [4]: 2.31; 590 nm absorbance normalized to zero hour (substrate use), 5 hr [4]: 2.64; 590 nm absorbance normalized to zero hour (substrate use), 6 hr [4]: 2.74; 590 nm absorbance normalized to zero hour (substrate use), 7 hr [4]: 2.85; 590 nm absorbance normalized to zero hour (substrate use), 8 hr [4]: 2.95; 590 nm absorbance normalized to zero hour (substrate use), 9 hr [4]: 3.10; 590 nm absorbance normalized to zero hour (substrate use), 10 hr [4]: 2.94; 590 nm absorbance normalized to zero hour (substrate use), 11 hr [4]: 2.81; 590 nm absorbance normalized to zero hour (substrate use), 4 hr [3]: 2.31; 590 nm absorbance normalized to zero hour (substrate use), 10 hr [3]: 2.94; 590 nm absorbance normalized to zero hour (substrate use), 11 hr [3]: 2.81
3 | Mannan | 1.03 | 0.89 | 1.03 | 1.06 | 1.80 | 1.08 | 1.09 | 1.11 | 1.27 | 1.03 | 1.14 | 1.15 | 1.03 | 1.25 | 1.28 | 1.41 | 1.44 | 1.49 | 1.49 | 1.61 | 590 nm absorbance normalized to zero hour (substrate use), 0 hr [1]: 1.00; Substrate use, 590 nm absorbance normalized to zero hour, 0 hr [1]: 1.00; 590 nm absorbance normalized to zero hour (substrate use), 0 hr [4]: 1.00; 590 nm absorbance normalized to zero hour (substrate use), 1 hr [4]: 1.03; 590 nm absorbance normalized to zero hour (substrate use), 2 hr [4]: 1.25; 590 nm absorbance normalized to zero hour (substrate use), 3 hr [4]: 1.28; 590 nm absorbance normalized to zero hour (substrate use), 5 hr [4]: 1.41; 590 nm absorbance normalized to zero hour (substrate use), 6 hr [4]: 1.44; 590 nm absorbance normalized to zero hour (substrate use), 7 hr [4]: 1.49; 590 nm absorbance normalized to zero hour (substrate use), 8 hr [4]: 1.49; 590 nm absorbance normalized to zero hour (substrate use), 9 hr [4]: 1.61; 590 nm absorbance normalized to zero hour (substrate use), 11 hr [4]: 1.76; 590 nm absorbance normalized to zero hour (substrate use), 0 hr [3]: 1.00; 590 nm absorbance normalized to zero hour (substrate use), 11 hr [3]: 1.76
